Our source for the inhibition and IC50 values is publication PMC6300282, “Sulphamethazine derivatives as immunomodulating agents: New therapeutic strategies for inflammatory diseases” (PLoS ONE, 2018).

Read-outs that look alike come from different tables or passages of the source.

In series [1] the test system is Bacillus subtilis (ATCC 6633). The experiment in a line: Microplate Alamar Blue Assay, Bacillus subtilis. It is filed as cell-based. Here is the method: (§1) The anti-bacterial activity of synthesized compound were evaluated by the Microplate Alamar Blue Assay. Staphylococcus aureus (ATCC 25923), Pseudomonas aeruginosa(POA 286), Salmonella typhi (ATCC 14028), Bacillus subtilis ATCC 6633) and Escherichia coli (ATCC 12022) were used in this study as a standard bacterial strains and they were obtained from microbial bank of PCMD, International Center for Chemical and Biological Sciences, University of Karachi, Karachi-75270, Pakistan. The bacterial colonies grown in Trypton Soya Agar (TSA) (Oxoid Limited, UK) were inoculated in Mueller Hinton Broth (MHB) (Oxoid Limited, UK) and incubated overnight at 37 °C. Fully grown bacterial cultures were then diluted to adjust with 0.5 McFarland Turbidity Index (equivalent to 1.5 × 10^8 CFU/mL). Stock solutions (4 mg/mL) of different test compounds were prepared in DMSO and 10μL each of these stock solutions were placed in well of flat bottom, polystyrene, sterile 96-wells plate except the positive control wells (media + bacteria). This gives 200μg/mL concentrations of compounds in final 200 μL solution. Each compound was run in triplicates. Finally, bacterial suspension (5 x 10^6 CFU/mL) was added in each well. Plates were sealed by parafilm and incubated at 37 °C for 18–22 hrs. Next day, 20 μL of 0.02% resazurin sodium salt dye (Chem-Impex-Int’LInc) was added in each well and incubated in shaking incubator at 80 rpm, 37 °C for 2–3 hrs. The color change from blue to reddish pink indicates the growth of bacteria. For quantitative analysis, plates were read at 570 nm and 600 nm in Multiskan GOmicroplate spectrophotometer, (Thermo Scientific, USA). The % inhibition of bacterial growth was calculated using below mentioned formula.
(§2) For the calculation of the % difference in reduction between treated and control cells in cytotoxicity/proliferation assays: =(εOX)λ2Aλ1-(εOX)λ1Aλ2oftestagent/(εOX)λ2A°λ1-(εOX)λ1A°λ2ofpositivegrowthcontrol×100

Series [2] relates to Salmonella typhi (ATCC 14028). The experiment in a line: Microplate Alamar Blue Assay, Salmonella typhi. It is filed as cell-based. The note with it: Salmonella enterica; 200 μg/mL; NI = No inhibition; read-out: Percentage (%) Inhibition, Slamonella typhi. On the procedure:
as §1, §2
Background: The colour change of resazurin is a common sign of viable cells or microbes.

Series [3] has as its system Escherichia coli (ATCC 12022). Description: Microplate Alamar Blue Assay, Escherichia coli. It is filed as cell-based. Here is the method: as §1, §2
In series [4] the test system is Pseudomonas aeruginosa (POA 286). The experiment in a line: Microplate Alamar Blue Assay, Pseudomonas aeruginosa. It is filed as cell-based. As to conditions: Pseudomonas aeruginosa, read-out: Percentage (%) Inhibition, Pseudomonas aerugenosa. Here is the method: as §1, §2
A further series can be described thus: MTT cytotoxicity assay. The note with it: mouse; MTT, 48 hours; read-out: Cytotoxicity NIH-3T3 cell line (IC50). It is filed as cell-based, mouse. On the procedure:
The cytotoxicity was recorded as concentration causing 50% growth inhibition (IC50).

The subject of series [5] is Staphylococcus aureus (ATCC 25923). Description: Microplate Alamar Blue Assay, Staphylococcus aureus. It is filed as cell-based. As to conditions: Staphylococcus aureus. On the procedure:
as §1, §2

The mark [6] stands for this setting: ATCC6633, 200 μg/mL, NI = No inhibition, read-out: Percentage (%) Inhibition, Bacillus subtilis.
The mark [7] stands for this setting: ATCC12022, 200 μg/mL, NI = No inhibition, read-out: Percentage (%) Inhibition, Escherichia coli.
Where [8] appears, read: ATCC25923, 200 μg/mL, NI = No inhibition, read-out: Percentage (%) Inhibition, Staphylococcus aureus.

One may read the inhibition as the share of the control response that was lost under treatment. Broadly, the IC50 is the concentration that inhibits the measured activity by half. On to `Cc1cc(C)nc(NS(=O)(=O)c2ccc(NC(=O)c3cccc(C(F)(F)F)c3F)cc2)n1` [Compound 14, N-(4-(N-(4,6-dimethylpyrimidin-2-yl)sulfamoyl)phenyl)-2-fluoro-3-(trifluoromethyl)benzamide], for which the inhibition at 200 µg/mL in series [1] (setting [6]) is below 0%; in series [2] it was 25.4%; in series [3] (setting [7]) it was below 0%; in series [4] (200 μg/mL, NI = No inhibition), 1.04%; in series [5] (setting [8]), 27.4%. The IC50 in the series “MTT cytotoxicity assay” was above 30 µM.

Regarding `Cc1cc(C)nc(NS(=O)(=O)c2ccc(NC(=O)c3cccc(F)c3)cc2)n1` [Compound 16, N-(4-(N-(4,6-dimethylpyrimidin-2-yl)sulfamoyl)phenyl)-3-fluorobenzamide], the inhibition at 200 µg/mL in series [1] (setting [6]) was below 0%; in series [2], 19.4%; in series [3] (setting [7]), below 0%; in series [4] (200 μg/mL, NI = No inhibition) it was below 0%; in series [5] (setting [8]), 47.2%. In addition, the IC50 in the series “MTT cytotoxicity assay” was above 30 µM.

For `Cc1cc(C)nc(NS(=O)(=O)c2ccc(NC(=O)c3ccccc3F)cc2)n1` [Compound 17, N-(4-(N-(4,6-dimethylpyrimidin-2-yl)sulfamoyl)phenyl)-2-fluorobenzamide], the inhibition at 200 µg/mL in series [1] (setting [6]) was below 0%; in series [3] (setting [7]), below 0%; in series [4] (200 μg/mL, NI = No inhibition), below 0%; in series [5] (setting [8]) it was 24.3%. The half-maximal inhibitory concentration (IC50) in “MTT cytotoxicity assay” was above 30 µM.

As for `Cc1cc(C)nc(NS(=O)(=O)c2ccc(NC(=O)c3ccc(F)c(F)c3)cc2)n1` [Compound 18, N-(4-(N-(4,6-dimethylpyrimidin-2-yl)sulfamoyl)phenyl)-3,4-difluorobenzamide], the inhibition at 200 µg/mL was below 0% in series [1] (setting [6]); 22.5% in series [2]; below 0% in series [3] (setting [7]); below 0% in series [4] (200 μg/mL, NI = No inhibition); 49.7% in series [5] (setting [8]). In addition, the half-inhibitory concentration (IC50) in the series “MTT cytotoxicity assay” is above 30 µM.

On to `Cc1cc(C)nc(NS(=O)(=O)c2ccc(NC(=O)c3ccc(C(F)(F)F)cc3)cc2)n1` [Compound 19, N-(4-(N-(4,6-dimethylpyrimidin-2-yl)sulfamoyl)phenyl)-4-(trifluoromethyl)benzamide], for which the inhibition at 200 µg/mL in series [1] (setting [6]) was below 0%; in series [2], 0.99%; in series [3] (setting [7]) it was below 0%; in series [4] (200 μg/mL, NI = No inhibition) it was 2.37%; in series [5] (setting [8]) it was 49.4%. The IC50 in “MTT cytotoxicity assay” was above 30 µM.

Turning to `Cc1cc(C)nc(NS(=O)(=O)c2ccc(NC(=O)c3cccc(Cl)c3)cc2)n1` [Compound 21, 3-chloro-N-(4-(N-(4,6-dimethylpyrimidin-2-yl)sulfamoyl)phenyl)benzamide], the inhibition at 200 µg/mL is below 0% in series [1] (setting [6]); 14.6% in series [2]; below 0% in series [3] (setting [7]); 28% in series [4] (200 μg/mL, NI = No inhibition); 54.6% in series [5] (setting [8]). For the same compound, the IC50 in the series “MTT cytotoxicity assay” is above 30 µM.

For `Cc1cc(C)nc(NS(=O)(=O)c2ccc(NC(=O)c3ccc(Cl)cc3)cc2)n1` [Compound 22, 4-chloro-N-(4-(N-(4,6-dimethylpyrimidin-2-yl)sulfamoyl)phenyl)benzamide], the inhibition at 200 µg/mL in series [1] (setting [6]) was below 0%; in series [2] it was 11.6%; in series [3] (setting [7]) it was below 0%; in series [4] (200 μg/mL, NI = No inhibition) it was 9.78%; in series [5] (setting [8]) it was 44.3%. Further, the 50% inhibitory concentration (IC50) in “MTT cytotoxicity assay” is above 30 µM.

In the case of `Cc1cc(C)nc(NS(=O)(=O)c2ccc(NC(=O)c3cc(Cl)ccc3Cl)cc2)n1` [Compound 23, 2,5-dichloro-N-(4-(N-(4,6-dimethylpyrimidin-2-yl)sulfamoyl)phenyl)benzamide], the inhibition at 200 µg/mL in series [1] (setting [6]) is below 0%; in series [2], below 0%; in series [3] (setting [7]), below 0%; in series [4] (200 μg/mL, NI = No inhibition) it was 1.54%; in series [5] (setting [8]), 5.76%. Moreover, the IC50 in “MTT cytotoxicity assay” was above 30 µM.

Regarding `Cc1cc(C)nc(NS(=O)(=O)c2ccc(NC(=O)c3ccc([N+](=O)[O-])cc3)cc2)n1` [Compound 25, N-(4-(N-(4,6-dimethylpyrimidin-2-yl)sulfamoyl)phenyl)-4-nitrobenzamide], the inhibition at 200 µg/mL is below 0% in series [1] (setting [6]); 4.64% in series [2]; 1.21% in series [3] (setting [7]); 6.35% in series [4] (200 μg/mL, NI = No inhibition); 17.5% in series [5] (setting [8]). Further, the half-inhibitory concentration (IC50) in the series “MTT cytotoxicity assay” was above 30 µM.

With `Cc1cc(C)nc(NS(=O)(=O)c2ccc(NC(=O)c3cc([N+](=O)[O-])cc([N+](=O)[O-])c3)cc2)n1` [Compound 26, N-(4-(N-(4,6-dimethylpyrimidin-2-yl)sulfamoyl)phenyl)-3,5-dinitrobenzamide], the inhibition at 200 µg/mL was below 0% in series [1] (ATCC6633, read-out: Percentage (%) Inhibition, Bacillus subtilis); below 0% in series [2]; below 0% in series [3] (ATCC12022, read-out: Percentage (%) Inhibition, Escherichia coli); below 0% in series [4]; 34.7% in series [5] (ATCC25923, read-out: Percentage (%) Inhibition, Staphylococcus aureus). Besides, the concentration for half-maximal inhibition (IC50) at 48 h in the series “MTT cytotoxicity assay” was above 30 µM.

Take `Cc1cc(C)nc(NS(=O)(=O)c2ccc(NC(=O)c3ccc([N+](=O)[O-])cc3Cl)cc2)n1` [Compound 27, 2-chloro-N-(4-(N-(4,6-dimethylpyrimidin-2-yl)sulfamoyl)phenyl)-4-nitrobenzamide]: the inhibition at 200 µg/mL is below 0% in series [1] (setting [6]); 3.72% in series [2]; below 0% in series [3] (setting [7]); below 0% in series [4] (200 μg/mL, NI = No inhibition); 50.1% in series [5] (setting [8]). In addition, the half-inhibitory concentration (IC50) in the series “MTT cytotoxicity assay” was above 30 µM.

As for `Cc1cc(C)nc(NS(=O)(=O)c2ccc(NC(=O)c3ccccc3Br)cc2)n1` [Compound 28, 2-Bromo-N-(4-(N-(4,6-dimethylpyrimidin-2-yl)sulfamoyl)phenyl)benzamide], the inhibition at 200 µg/mL is below 0% in series [1] (setting [6]); 11.1% in series [2]; 4.65% in series [3] (setting [7]); 3.99% in series [4] (200 μg/mL, NI = No inhibition); 58.5% in series [5] (setting [8]). Further, the IC50 in the series “MTT cytotoxicity assay” was above 30 µM.

For the compound `Cc1cc(C)nc(NS(=O)(=O)c2ccc(NC(=O)c3ccc(Br)cc3)cc2)n1` [Compound 29, 4-Bromo-N-(4-(N-(4,6-dimethylpyrimidin-2-yl)sulfamoyl)phenyl)benzamide], the inhibition at 200 µg/mL was below 0% in series [1] (setting [6]); 14.1% in series [2]; below 0% in series [3] (setting [7]); 15% in series [4] (200 μg/mL, NI = No inhibition); 52.3% in series [5] (setting [8]). Moreover, the half-inhibitory concentration (IC50) in “MTT cytotoxicity assay” is above 30 µM.

With `Cc1cc(C)nc(NS(=O)(=O)c2ccc(NC(=O)c3cccc(Br)c3)cc2)n1` [Compound 30, 3-Bromo-N-(4-(N-(4,6-dimethylpyrimidin-2-yl)sulfamoyl)phenyl)benzamide], the inhibition at 200 µg/mL in series [1] (setting [6]) is below 0%; in series [2] it was 4.26%; in series [3] (setting [7]), below 0%; in series [4] (200 μg/mL, NI = No inhibition), below 0%; in series [5] (setting [8]), 34.2%. In addition, the IC50 in the series “MTT cytotoxicity assay” was above 30 µM.

As to `CC1COc2c(N3CCN(C)CC3)c(F)cc3c(=O)c(C(=O)O)cn1c23` (stereo not shown) [Ofloxacin, reference compound], the inhibition at 200 µg/mL was found to be 93.8% in series [1] (setting [6]); 89.8% in series [2]; 94.4% in series [3] (setting [7]); 94.1% in series [4] (200 μg/mL, NI = No inhibition); 94.1% in series [5] (setting [8]).
